Experimental data from ChEMBL document CHEMBL1201861, “Genomics of Drug Sensitity in Cancer screening data, Wellcome Trust Sanger Institute”.

Tests used:
Experiment in all cases: cells
[1] = test system: EC-GI-10; type: functional, cell-based, Homo sapiens; settings: Homo sapiens, EC-GI-10
Description: SANGER: Inhibition of human EC-GI-10 cell growth in a cell viability assay.

[2] = test system: EKVX; type: functional, cell-based, Homo sapiens; settings: Homo sapiens, EKVX;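 further: growth inhibition of human EKVX cells, read out with a cell viability assay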
Description: SANGER: Inhibition of human EKVX cell growth in a cell viability assay.

[3] = test system: ES1; type: functional, cell-based, Homo sapiens; settings: Homo sapiens, ES1;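 further: growth inhibition of ES1 cells, read out with a cell viability assay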
Description: SANGER: Inhibition of human ES1 cell growth in a cell viability assay.

[4] = test system: GCIY; type: functional, cell-based, Homo sapiens; settings: Homo sapiens, GCIY;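 further: growth inhibition of the human GCIY cell line, read out by a cell viability assay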
Description: SANGER: Inhibition of human GCIY cell growth in a cell viability assay.

[5] = test system: HCC1187; type: functional, cell-based, Homo sapiens; settings: Homo sapiens, HCC1187;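 further: growth inhibition of HCC1187 cells, read out with a cell viability assay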
Description: SANGER: Inhibition of human HCC1187 cell growth in a cell viability assay.

[6] = test system: HuTu80; type: functional, cell-based, Homo sapiens, HUTU-80; settings: Homo sapiens, HuTu80;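 further: growth inhibition of HuTu80 human cells, determined with a cell viability readout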
Description: SANGER: Inhibition of human HUTU-80 cell growth in a cell viability assay.

[7] = test system: KM12; type: functional, cell-based, Homo sapiens; settings: Homo sapiens, KM12;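 further: KM12 cell growth inhibition, read out with a cell viability assay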
Description: SANGER: Inhibition of human KM12 cell growth in a cell viability assay.

[8] = test system: L-428; type: functional, cell-based; settings: Homo sapiens
Description: SANGER: Inhibition of human L-428 cell growth in a cell viability assay.

[9] = test system: LAN-6; type: functional, cell-based, Homo sapiens; settings: Homo sapiens, LAN-6;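 further: growth inhibition of LAN-6 cells, determined with a cell viability assay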
Description: SANGER: Inhibition of human LAN-6 cell growth in a cell viability assay.

[10] = test system: LB1047-RCC; type: functional, cell-based, Homo sapiens; settings: Homo sapiens, LB1047-RCC;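 further: inhibition of cell growth, determined with a cell viability assay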
Description: SANGER: Inhibition of human LB1047-RCC cell growth in a cell viability assay.

[11] = test system: MEG-01; type: functional, cell-based; settings: Homo sapiens;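 further: growth inhibition of MEG-01 cells, read out by a cell viability assay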
Description: SANGER: Inhibition of human MEG-01 cell growth in a cell viability assay.

[12] = test system: MOLT-16; type: functional, cell-based; settings: Homo sapiens;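 further: growth inhibition of human MOLT-16 cells, read out with a cell viability assay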
Description: SANGER: Inhibition of human MOLT-16 cell growth in a cell viability assay.

[13] = test system: NCI-H1770; type: functional, cell-based; settings: Homo sapiens;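 further: growth inhibition of NCI-H1770 cells determined with a viability readout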
Description: SANGER: Inhibition of human NCI-H1770 cell growth in a cell viability assay.

[14] = test system: NCI-H1838; type: functional, cell-based, Homo sapiens; settings: Homo sapiens, NCI-H1838;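 further: growth inhibition of NCI-H1838 cells, determined with a cell viability readout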
Description: SANGER: Inhibition of human NCI-H1838 cell growth in a cell viability assay.

[15] = test system: NCI-H226; type: functional, cell-based, Homo sapiens; settings: Homo sapiens, NCI-H226;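 further: cell viability read-out used to gauge growth inhibition of the cells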
Description: SANGER: Inhibition of human NCI-H226 cell growth in a cell viability assay.

[16] = test system: NCI-H526; type: functional, cell-based; settings: Homo sapiens;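 further: growth inhibition of the human NCI-H526 cell line, measured by a cell viability assay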
Description: SANGER: Inhibition of human NCI-H526 cell growth in a cell viability assay.

[17] = test system: NCI-H82; type: functional, cell-based; settings: Homo sapiens;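 further: growth inhibition of NCI-H82 cells, measured with a cell viability readout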
Description: SANGER: Inhibition of human NCI-H82 cell growth in a cell viability assay.

[18] = test system: SK-N-FI; type: functional, cell-based, Homo sapiens; settings: Homo sapiens, SK-N-FI;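 further: cell viability assay measuring growth inhibition of human SK-N-FI cells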
Description: SANGER: Inhibition of human SK-N-FI cell growth in a cell viability assay.

[19] = test system: SNB-75; type: functional, cell-based, Homo sapiens; settings: Homo sapiens, SNB-75;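 further: cell viability assay measuring growth inhibition of human SNB-75 cells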
Description: SANGER: Inhibition of human SNB75 cell growth in a cell viability assay.

[20] = test system: A388; type: functional, cell-based, Homo sapiens; settings: Homo sapiens, A388;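 further: growth inhibition of human A388 cells, read out with a cell viability assay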
Description: SANGER: Inhibition of human A388 cell growth in a cell viability assay.

[21] = test system: C8166; type: functional, cell-based; settings: Homo sapiens;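 further: growth inhibition of human C8166 cells measured by a cell viability assay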
Description: SANGER: Inhibition of human C8166 cell growth in a cell viability assay.

[22] = test system: U-87 MG; type: functional, cell-based, U-87MG ATCC; settings: Homo sapiens;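 further: growth inhibition of the cells measured with a viability assay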
Description: SANGER: Inhibition of human U-87-MG cell growth in a cell viability assay.

[23] = test system: D-392MG; type: functional, cell-based, Homo sapiens; settings: Homo sapiens, D-392MG

Row | Compound | IC50 [1] [nM] | IC50 [2] [nM] | IC50 [3] [nM] | IC50 [4] [nM] | IC50 [5] [nM] | IC50 [6] [nM] | IC50 [7] [nM] | IC50 [8] [nM] | IC50 [9] [nM] | IC50 [10] [nM] | IC50 [11] [nM] | IC50 [12] [nM] | IC50 [13] [nM] | IC50 [14] [nM] | IC50 [15] [nM] | IC50 [16] [nM] | IC50 [17] [nM] | IC50 [18] [nM] | IC50 [19] [nM] | IC50 [20] [nM] | other results
1 | CN1CCN(CCOc2cc(OC3CCOCC3)c3c(Nc4c(Cl)ccc5c4OCO5)ncnc3c2)CC1 [SARACATINIB] | > 2000 | > 2000 | > 2000 | > 2000 | > 2000 | > 2000 | > 2000 | > 2000 | > 2000 | 1550 | 237 | > 2000 | > 2000 | > 2000 | > 2000 | > 2000 | > 2000 | > 2000 | > 2000 | > 2000 | IC50 [21]: > 2000 nM; IC50 [22]: > 2000 nM
2 | CO[C@H]1C[C@@H]2CC[C@@H](C)[C@@](O)(O2)C(=O)C(=O)N2CCCC[C@H]2C(=O)O[C@H]([C@H](C)C[C@@H]2CC[C@@H](O)[C@H](OC)C2)CC(=O)[C@H](C)/C=C(\C)[C@@H](O)[C@@H](OC)C(=O)[C@H](C)C[C@H](C)/C=C/C=C/C=C/1C [SIROLIMUS] | > 100 | > 100 | > 100 | 53.5 | > 100 | 4.42 | > 100 | > 100 | > 100 | 34.7 | > 100 | > 100 | > 100 | > 100 | > 100 | 93.6 | > 100 | > 100 | > 100 | 44.8 | IC50 [21]: > 100 nM; IC50 [22]: > 100 nM
3 | CNC(=O)c1cc(Oc2ccc(NC(=O)Nc3ccc(Cl)c(C(F)(F)F)c3)cc2)ccn1 [SORAFENIB] | > 4000 | > 4000 | > 4000 | > 4000 | > 4000 | > 4000 | 1020 | > 4000 | > 4000 | > 4000 | 1810 | > 4000 | > 4000 | > 4000 | > 4000 | > 4000 | > 4000 | > 4000 | > 4000 | 1590 | IC50 [23]: > 4000 nM; IC50 [21]: > 4000 nM; IC50 [22]: > 4000 nM
4 | CCC(=O)N1CCN(c2ccc(-n3c(=O)ccc4cnc5ccc(-c6cnc7ccccc7c6)cc5c43)cc2C(F)(F)F)CC1 [TORIN1] | > 1200 | 445 | 31 | 10.1 | 468 | 9.29 | 76.4 | 103 | > 1200 | 24.9 | 186 | 16.2 | > 1200 | > 1200 | > 1200 | 910 | 141 | > 1200 | 63.4 | 68.9 | IC50 [21]: > 1200 nM; IC50 [22]: > 1200 nM
5 | Cc1cc(Nc2cc(N3CCN(C)CC3)nc(Sc3ccc(NC(=O)C4CC4)cc3)n2)n[nH]1 [TOZASERTIB] | > 2000 | > 2000 | > 2000 | > 2000 | 1010 | 53 | 264 | > 2000 | > 2000 | > 2000 | 278 | 1350 | > 2000 | > 2000 | > 2000 | > 2000 | > 2000 | > 2000 | > 2000 | 341 | IC50 [21]: > 2000 nM; IC50 [22]: > 2000 nM
